This note sets out measurements from PubChem BioAssay (NCI).

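These data come from cells grown in 96-well plates and exposed to compound for 48 hours at five concentrations. Abbreviation: GI50, concentration required for 50% inhibition of growth. Definition used: TGI = concentration required for complete inhibition of growth.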

Some test systems named below: CCRF-CEM leukemia; HCT-15 colon; SF-268 CNS; SK-OV-3 ovarian; SNB-75 CNS; SR leukemia; TK-10 renal; UO-31 renal.
Common to all, as to experiment: inhibition of tumour cell growth, NCI panel, 48 h

Regarding `O=C(Nc1ccccc1Cl)c1ccc(NC2=C(Cl)C(=O)N(C3CCCCC3)C2=O)cc1`, the GI50 in the assay on CCRF-CEM leukemia is 8.29 µM; with HCT-15 colon it was 6.79 µM; with SF-268 CNS it was 20.2 µM; in the assay on SK-OV-3 ovarian, 27.1 µM; with SNB-75 CNS, 8.64 µM; with SR leukemia it was 3.03 µM. Moreover, the GI50 in the assay on TK-10 renal is 20.6 µM; in the assay on UO-31 renal, 16.6 µM. In addition, the TGI was determined as 33.5 µM with CCRF-CEM leukemia; 25.2 µM in the assay on HCT-15 colon; 52.9 µM in the assay on SF-268 CNS; 65.2 µM with SK-OV-3 ovarian; 34.4 µM in the assay on SNB-75 CNS; 7.87 µM in the assay with SR leukemia. The TGI in the assay with TK-10 renal came to 44.3 µM; in the assay with UO-31 renal it was 42.3 µM.

As for `Cc1ccc(-c2nc(/C=N/Nc3cc(C)nc4ccc(Br)cc34)c(C)o2)cc1`, the GI50 in the assay on CCRF-CEM leukemia was 2.17 µM; in the assay on HCT-15 colon, 1.86 µM; with SF-268 CNS, 2.09 µM; with SK-OV-3 ovarian it was 1.8 µM; in the assay with SNB-75 CNS, 1.74 µM; in the assay with SR leukemia, 2.67 µM. Moreover, the GI50 in the assay with TK-10 renal was 1.82 µM; in the assay with UO-31 renal it was 1.65 µM. For the same compound, the TGI in the assay with CCRF-CEM leukemia stood at 5.51 µM; in the assay on HCT-15 colon, 3.64 µM; in the assay with SF-268 CNS, 4.22 µM; with SK-OV-3 ovarian, 3.29 µM; with SNB-75 CNS, 3.39 µM; with SR leukemia, 7.71 µM. The TGI came out at 3.29 µM in the assay with TK-10 renal and 3.08 µM with UO-31 renal.

Take `O=C1/C(=C/c2ccc(F)cc2)CN(C(=O)C(Cl)Cl)C/C1=C\c1ccc(F)cc1`: the GI50 with CCRF-CEM leukemia was 0.136 µM; in the assay with HCT-15 colon, 0.145 µM; in the assay on SF-268 CNS it was 0.328 µM; in the assay on SK-OV-3 ovarian, 0.884 µM; in the assay with SNB-75 CNS, 1.45 µM; in the assay with SR leukemia, 0.0386 µM. Further, the GI50 in the assay with TK-10 renal was 0.67 µM; with UO-31 renal it was 0.163 µM. For the same compound, the TGI is greater than 24.2 µM with CCRF-CEM leukemia; 0.682 µM in the assay on HCT-15 colon; 1.47 µM in the assay with SF-268 CNS; 2.2 µM with SK-OV-3 ovarian; 2.93 µM with SNB-75 CNS; greater than 100 µM in the assay on SR leukemia. In addition, the TGI in the assay with TK-10 renal turned out to be 1.96 µM; with UO-31 renal, 0.327 µM.

As for `CCN1C(=O)N(CC)C2C1NN=c1s/c(=C\c3ccc(C(F)(F)F)cc3)c(=O)n12` (stereo not given), the GI50 with CCRF-CEM leukemia is 0.328 µM; with HCT-15 colon it was 0.318 µM; in the assay on SF-268 CNS, 1.03 µM; in the assay on SK-OV-3 ovarian, 0.492 µM; in the assay on SNB-75 CNS, 0.18 µM; with SR leukemia it was 0.204 µM. For the same compound, the figures for the GI50 in the assay on TK-10 renal and in the assay on UO-31 renal were 2.23 µM and 0.839 µM, respectively. In addition, the TGI in the assay on CCRF-CEM leukemia is 17 µM; with HCT-15 colon, greater than 35.6 µM; in the assay on SF-268 CNS, greater than 41 µM; in the assay on SK-OV-3 ovarian, greater than 100 µM; with SNB-75 CNS, 2.74 µM; with SR leukemia, 5.77 µM. Also, the TGI was greater than 62.3 µM in the assay on TK-10 renal and greater than 42.9 µM in the assay with UO-31 renal.

Regarding `Cc1ccc2[nH]c(O)c(N=Nc3ccccc3[N+](=O)[O-])c2c1`, the TGI in the assay on CCRF-CEM leukemia was greater than 100 µM; in the assay with HCT-15 colon it was greater than 100 µM; in the assay on SF-268 CNS, greater than 29.4 µM; in the assay on SK-OV-3 ovarian, 14.2 µM; in the assay with SNB-75 CNS, greater than 50 µM; with SR leukemia, 32.6 µM. Further, the TGI was determined as 64.5 µM in the assay with TK-10 renal and 9.3 µM in the assay with UO-31 renal.

As for `COc1cc2c(/C=C3/C(=O)Nc4ccc(O)cc43)c(Cl)n(Cc3cc(OC)c(OC)c(OC)c3)c2cc1C`, the GI50 in the assay with CCRF-CEM leukemia is 1.38 µM; in the assay with HCT-15 colon, 1.81 µM; in the assay on SF-268 CNS, 4.64 µM; in the assay with SK-OV-3 ovarian, 4.06 µM; in the assay on SNB-75 CNS, 1.61 µM; in the assay with SR leukemia it was 0.329 µM. Besides, the GI50 with TK-10 renal and in the assay with UO-31 renal was 3.25 µM each time. The TGI with CCRF-CEM leukemia is 10.9 µM; with HCT-15 colon, greater than 34.1 µM; in the assay on SF-268 CNS, greater than 100 µM; in the assay with SK-OV-3 ovarian, greater than 75 µM; with SNB-75 CNS, greater than 59.8 µM; with TK-10 renal, greater than 24.6 µM. In addition, the TGI in the assay on UO-31 renal was greater than 74.4 µM.

As to `Cc1c[nH]c(=O)n(Cc2nnc(CCC(=O)c3nc4ccccc4[nH]3)o2)c1=O`, the GI50 in the assay with CCRF-CEM leukemia was 0.459 µM; with HCT-15 colon it was 8.93 µM; in the assay with SF-268 CNS it was 1.5 µM; with SK-OV-3 ovarian, 0.46 µM; in the assay on SNB-75 CNS, 0.0558 µM; with SR leukemia, 0.447 µM. Further, the GI50 in the assay with TK-10 renal is 3.68 µM; with UO-31 renal, 2.4 µM. The TGI in the assay with CCRF-CEM leukemia is greater than 100 µM; with HCT-15 colon, greater than 100 µM; with SF-268 CNS, greater than 100 µM; with SK-OV-3 ovarian, 13.2 µM; with SNB-75 CNS it was 0.806 µM; in the assay with SR leukemia, greater than 100 µM. For the same compound, the TGI in the assay with TK-10 renal was greater than 80.6 µM; in the assay with UO-31 renal it was greater than 100 µM.

On to `COc1ccc2nc3c(cc2c1)C(=O)CC(c1ccccc1)C3` (stereo not given), for which the GI50 was 0.291 µM in the assay on CCRF-CEM leukemia; 2.19 µM in the assay on HCT-15 colon; greater than 100 µM in the assay with SF-268 CNS; 2.09 µM with SK-OV-3 ovarian; 0.181 µM with SNB-75 CNS; 0.379 µM in the assay with SR leukemia. The GI50 is greater than 100 µM in the assay with TK-10 renal and 0.589 µM in the assay on UO-31 renal. For the same compound, the TGI with CCRF-CEM leukemia, in the assay with HCT-15 colon, with SF-268 CNS, with SK-OV-3 ovarian, in the assay on SNB-75 CNS and in the assay on SR leukemia was greater than 100 µM in each case. Further, the TGI in the assay on TK-10 renal and in the assay with UO-31 renal was greater than 100 µM in each case.

In the case of `O=C(Nc1cccc(C(F)(F)F)c1)c1ccc(NC2=C(Cl)C(=O)N(Cc3ccccc3)C2=O)cc1`, the GI50 with CCRF-CEM leukemia is 3.06 µM; with HCT-15 colon, 4.41 µM; in the assay on SF-268 CNS, 6.41 µM; with SK-OV-3 ovarian, 25.7 µM; with SNB-75 CNS, 23.1 µM; in the assay with SR leukemia, 0.421 µM. For the same compound, the GI50 is 17.9 µM with TK-10 renal and 2.84 µM in the assay with UO-31 renal. The TGI was greater than 100 µM with CCRF-CEM leukemia; 18.9 µM in the assay with HCT-15 colon; 29.9 µM with SF-268 CNS; 82.6 µM in the assay with SK-OV-3 ovarian; 51.4 µM in the assay with SNB-75 CNS; 2.82 µM in the assay on SR leukemia. The TGI came to 37.4 µM in the assay with TK-10 renal and 9.06 µM in the assay with UO-31 renal.

For `CC(=O)Nc1ccc(OC(C)=O)cc1`, the GI50 in the assay on CCRF-CEM leukemia was less than 0.01 µM; in the assay on HCT-15 colon, less than 0.01 µM; in the assay with SF-268 CNS, less than 0.0103 µM; in the assay with SK-OV-3 ovarian, less than 0.01 µM; in the assay with SNB-75 CNS, less than 0.01 µM; in the assay on SR leukemia, less than 0.01 µM. Besides, the GI50 was 10.7 µM in the assay with TK-10 renal and 0.252 µM in the assay on UO-31 renal. In addition, the TGI was greater than 49.8 µM in the assay on CCRF-CEM leukemia; 16.6 µM in the assay with HCT-15 colon; 46.2 µM with SF-268 CNS; 28.6 µM in the assay with SNB-75 CNS; 1.5 µM with SR leukemia; greater than 100 µM in the assay on TK-10 renal. This compound also gave a TGI in the assay on UO-31 renal of 26 µM.
